According to patent publication US10732092B2, “Analysis of single cell mechanical phenotyping for metastatic detection” (University of Maryland, College Park, priority 2015, dated 2020):

Legend:
cells (nucleus) = assay: Brillouin and fluorescence 2D imaging of cells with and without CytoD treatment (setup of FIG. 21); type: cell-based; settings: treated vs control group, FIGS. 23a, 23b
Procedure: FIG. 21 illustrates a Brillouin spectroscopy setup according to another embodiment of the current invention. In this embodiment, a second optical modality is added to acquire a co-registered confocal fluorescence image of the cell simultaneously when the cell is probed by the Brillouin beam. The second optical modality may comprise a dichroic mirror 2127, a tube lens 2122, a pinhole mask 2126, and a photo-detector 2125. The dichroic mirror 2127 will let the laser beam 2110 and the Brillouin signal pass through but reflects the fluorescence light. Compared with the bright-field microscope of FIG. 12, the confocal configuration has better transverse and lateral optical resolution by rejecting fluorescence light from the out-of-focus plane. In practice, fluorescently labelled cells can be used to identify a sub-region of a cell (e.g., nucleus) and the focused spot of laser beam 2110 can be used to directly excite fluorescence emission. Then, the confocal configuration is used to detect the fluorescence emission light by a camera 2125. Based on the intensity of the fluorescence emission light, one can accurately determine the location of the focused spot (and thus the Brillouin signal) inside the cell so that the Brillouin signal can be assigned to a targeted point. […]
As an example of classifying cells using the embodiment of FIG. 21, effect of CytoD on the cells was analyzed. […]

NIH 3T3 fibroblast cells [1] = assay: Inhibition of actin filament, Brillouin-based label-free flow cytometry; type: cell-based; settings: cytoD 2 ug/mL for 10 minutes; 232 treated cells; FIG. 33B
Procedure: (§1) Two drugs, cytochalasin D (cytoD) and nocodazole (Noco), were applied to 3T3 cells to inhibit the actin filament and microtubules filament, respectively. NIH 3T3 fibroblast cells purchased from American Type Culture Collection (ATCC) were used for all experiments. Cells were cultured following standard protocols. For inhibitation of microtubules filament, cells were first treated by Noco of 1 ug/mL for 30 minutes, and then harvested by trypsinization and re-suspended in a solution of phosphate-buffered saline (PBS) without Mg^2+ and Ca^2+ at a concentration of ˜0.1 million cells per ML before measurement. Due to the low concentration, few cells were captured by flowing. Instead, a single cell in suspension was imaged after it was delivered into the microfluidic devices. […] The Brillouin shift of the treated cell 3312 is 0.29 GHz higher, indicating a distinct stiffening of its nucleus. Considering the sensitivity of the instrument is ˜0.01 GHz, microtubules filament-inhibited cells were easily identified from normal cells based on the mechanical stiffening of the nucleus.
For inhibition of actin filament, cells were first treated by cytoD of 2 ug/mL for 10 minutes, and then harvested by trypsinization and re-suspended in a solution of phosphate-buffered saline (PBS) without Mg^2+ and Ca^2+ at a concentration of ˜1 million cells per mL before measurement. […]

NIH 3T3 cell line [2] = assay: Brillouin flow cytometry of CytoD-treated suspended cells (setup of FIG. 12); type: cell-based
Text: FIG. 12 illustrates an exemplary embodiment of the current invention resulting from a novel combination of an epi-detection path to excite/collect Brillouin signal, a monitoring imaging modality, a microfluidic device (or other cell plating device), a Brillouin spectrometer and a computer with software that links all of these sub-components. A first incoming illuminating beam 1210 is focused onto one spot inside a microfluidic device 1230 by using a beam splitter 1211 and an objective lens 1212. The illuminating laser beam 1210 may be a laser beam. In one embodiment, the first incoming laser beam 1210 is focused into spot of 1 to 10 μm. The backward Brillouin scattering light is collected by the same objective lens 1212 and guided to a Brillouin spectrometer 1215 via the beam splitter 1211, a reflected mirror 1213, and a coupling lens 1214. The Brillouin spectrometer 1215 is a device that can measure the Brillouin frequency shift accurately. One example of the Brillouin spectrometer 1215 is disclosed in Scarcelli Polachech 2015 Nature Methods Above the microfluidic device 1230, there is a bright-field microscope consisting of a second light source 1220 (usually has a different wavelength from laser beam 1210), a beam splitter 1221, a tube lens 1222, an objective lens 1224, and a 2D image recording device 1225. The purpose of this microscope setup is to monitor the flowing status of the cells inside the microfluidic device 1230. In one embodiment, the microscope setup further contains a spectral filter 1223, which blocks the light from the laser beam 1210, but allows the light from a light source 1220 to pass. […]
In yet another embodiment, a second approach, named as image-guided alignment, may be used to align the flowing cell to the focused spot of the laser beam 1210. […] Suppose a cell 1630 is flowing along y-direction (from top to bottom), once it appears in the field of view, its location (x1) and the horizontal shift (x0-x1) with respect to the focused spot 1620 can be determined. […] In this case, all of the measured data points were used to plot the histogram graph in FIG. 17a. […]

adherent cells = assay: Cytoskeletal stiffness of adherent cells treated with CytoD; type: cell-based
F-actin = settings: attached cells treated with CytoD; cited from earlier work
NIH 3T3 fibroblast cells [3] = assay: Inhibition of microtubules filament, Brillouin imaging of single suspended cell; type: cell-based; settings: Noco 1 ug/mL for 30 minutes; single cell in suspension; FIG. 33A
Procedure: as §1

NIH 3T3 cell line [4] = assay: Chromatin decondensation experiment, Brillouin mechanical cytometry of TSA-treated cells; type: cell-based; settings: TSA 100 ng/mL, 2 hours
Text: A vertically-polarized laser beam 2628 is first reflected by the polarized beam splitter (PBS) 2634 and focused into the center of a microfluidic channel 2624 from the bottom side by objective lens 2632. In one embodiment, a 11-mW single-mode linearly-polarized 532-nm cw laser (Torus, Laser Quantum) was used as a light source to excite Brillouin scattering. Due to the quarter-wave plate (QWP) 2626, the focused beam was circularly polarized. The backward scattered light was collected by the same objective lens 2632 and passed through the QWP 2626 again. The circularly-polarized light is eventually turned into horizontally-polarized one which is totally transmitted by the PBS 2634. […] The location of the focused Brillouin beam was pre-determined by removing the long-pass filter (LP) 2612. […] In one embodiment, a CCD camera 2610 and the Brillouin spectrometer 2638 were synchronized by a LabVIEW program so that the spectrometer's data can be assigned to the corresponding location of the measured sample. […] When a cell passes through the beam location (white dots indicated by the arrows), its Brillouin shift is measured. […]
Cells are cultured and re-suspended in a solution of phosphate-buffered saline (PBS) without Mg2+ and Ca2+. […] Cells without washing are then ready for fluorescence experiment. […]

## C=C1[C@@H](C)[C@H]2[C@H](Cc3ccccc3)NC(=O)[C@]23[C@H](OC(C)=O)/C=C/[C@@](C)(O)C(=O)[C@@H](C)C/C=C/[C@H]3[C@@H]1O [CytoD, cytochalasin D]
Cells (nucleus)
  nucleus stiffness (Brillouin signal vs fluorescence intensity): much softened
NIH 3T3 fibroblast cells [1]
  decrease of averaged Brillouin shift of the nucleus, treated group vs control group: 0.12 GHz
NIH 3T3 cell line [2]; NIH 3T3, suspended after trypsinization, CytoD 0.5, 2, 5 ug/ml, FIGS. 20b-20e
  Brillouin frequency shift of cytoplasm peaks: almost no change
NIH 3T3 cell line [2]; NIH 3T3, suspended in PBS, CytoD 0.5, 2 and 5 ug/ml, FIG. 20a
  stiffness of the cells (average Brillouin frequency shift over the whole cell): dose dependent effect
NIH 3T3 cell line [2]; NIH 3T3, suspended, increasing dose of CytoD 0.5, 2, 5 ug/ml, FIGS. 20b-20e
  Brillouin frequency shift of nucleus peak (nucleus stiffness): nucleus is getting softer
Adherent cells
  cytoskeletal stiffness: markedly reduced
F-actin
  F-actin: dramatically reduced

## COC(=O)Nc1nc2ccc(C(=O)c3cccs3)cc2[nH]1 [Noco, nocodazole]
NIH 3T3 fibroblast cells [3]
  increase of averaged Brillouin shift of the nucleus, treated cell vs control: 0.29 GHz

## CC(/C=C/C(=O)NO)=C\[C@@H](C)C(=O)c1ccc(N(C)C)cc1 [TSA, trichostatin A]
NIH 3T3 cell line [4]; control nucleus 7.80 GHz, 356 treated cells
  Brillouin shift of the nucleus after treatment: 7.71 GHz
NIH 3T3 cell line [4]; same as control
  Brillouin shift of the cytoplasm after treatment: 7.56 GHz
